Data published in patent US20110312890A1, “ACETYLATED AMINO ACIDS AS ANTI-PLATELET AGENTS, NUTRITIONAL AND VITAMIN SUPPLEMENTS” (SIGNATURE R&D HOLDINGS, LLC, priority 2005, published 2011).
Values joined by “and” are separate entries in the source; they are usually repeats but may differ in a detail not shown here. Identical values can stand only once. Each block holds one compound with its values, some of them ahead of it. Non-standard residues stand in square brackets, D forms with d. Residues, ends and D or L forms follow the SMILES beside them. ξ: configuration not given here. ξY = NC(Cc1ccc(O)cc1)C(=O)O; ξS = NC(CO)C(=O)O

Tests used:
[1] = Hygroscopicity and handling stability of salts and zwitterions; format: physicochemical
Procedure: Salts of compound O-Acetyl-(L)-Serine-O—(O-Acetyl)-L-Serine with various acids, including HCl, MeSO3H and tartaric acid, were prepared. […] The salt with tartaric acid was unstable and produced the zwitterion son attempted recrystallization from water/acetonitrile. The zwitterions of all three compounds were the most convenient forms (non-hygroscopic) for preparation. If needed, salts are prepared in situ during the formulation process.
(§1) A sample of the compound of Ex 3 was tested in D2O with 1 drop of DCl added for a better solubility of the material. […] Stability of the compound of Ex 3 in an aqueous solution as a salt of tartaric acid is much greater. A 400-mg sample of the salt was attempted to recrystallize from 6 ml of boiling acetonitrile and 20 drops of water. The material crystallized as a zwitterion (not a tartrate) with minor traces of the decomposition. However, the recovery was 132 mg only.
(§2) c. The material of Ex 3 as a zwitterion was recrystallized from aqueous 40% EtOH while heating at 70 C for approximately 20 minutes. […] In a solution of 8% acetonitrile/92% aqueous 0.05 mol buffer of KH2PO4 (pH 5). […] Temperature of the analyses greatly affected the outcome of the analyses.

[2] = Stability in solution or solid state followed by NMR; format: physicochemical
Procedure: (§3) In addition, HPLC analysis of the products indicated faster degradation when determinations were made at higher temperatures (40 or 25° C. compared to 10 or 15° C.). The purity of the compounds of Ex 4 varied by as much as 20% when the analysis was performed at 25 and 10° C., respectively.
as §1
(§4) f. Instability of the compound of Ex 4 in an aqueous solution as a zwitterion was observed when a recovery of an additional amount of the material from a large freeze-drying flask was attempted. Simple dissolution of a residual material on the walls with DI water followed by freeze-drying has decrease estimated by NMR purity from 95-96% to 87-88%. • g. […] The same sample analyzed at 25 C and 10 C had difference in purity 13-15%, e.g., either 78-80% or 93%.
(§5) Instability of the compound of Ex 5 in an aqueous solution as a zwitterion was observed while doing a purification of an additional amount of the material on C8 silica gel with water/acetonitrile as eluent. • j. The material of the compound of Ex 5 was decomposing faster during HPLC analysis when temperature of the thermostat was higher. The same sample analyzed at 40 C and 15 C had purity 97% or 99%, correspondingly. • k.

[3] = Stability followed by HPLC purity (time in solution, temperature of analysis); format: physicochemical; conditions: for HPLC purity, same sample analyzed at 10 C: temperature of analysis 10 C (Ex 3: pH 4.5); for HPLC purity, same sample analyzed at 40 C: temperature of analysis 40 C
Procedure: as §3, §2, §4, §5

platelet aggregation [4] = experiment: Whole blood clotting time by capillary tube method in human volunteers; format: in vivo; conditions: for Max % Increase in clotting time: versus time zero
Procedure: A Test Method was developed to determine clotting time to evaluate the anti, platelet aggregation effect of O-acetyl-L-Tyrosine (OAT) by employing capillary tube method in two human volunteers.
1. Dose Strength: Volunteer 1 (90 Kg) 1000 mg, Volunteer 2 (60 Kg) 350 mg of OAT
3. Route of Administration: Single exposure by […]. 4. Blank Control Self, time zero clotting time
600 mg of O-Acetyl-L-Serine-O-Acetyl-L-Tyrouine was administered to a single human volunteer who weighs 136 lbs and is […]. The procedure was conducted using the protocol of Example 2, except the drug administered was O-Acetyl-L-Serine-O-Acetyl-L-Tyrosine. The results are depicted in FIG. 3.

platelet aggregation [5] = experiment: Clotting time by capillary tube method in Swiss Albino rats (anti platelet aggregation effect); format: in vivo; conditions: for Clotting time: OAS study, 2 hours post dosing, HCl salt; for Clotting time / Clotting time in minutes, After 4 hrs of administration / Clotting time in minutes, After 24 hrs of administration: single oral gavage; for Significance of clotting times at all dose levels and between the dose levels (FIG. 1): rats, 10-100 mg/kg, average of 5 rats, P<0.5 [sic]; for Clotting time in minutes, After 4 hrs of administration / Clotting time in minutes, After 24 hrs of administration: OAT study
Procedure: A Test Method was developed to determine clotting time to evaluate the anti platelet aggregation effect of O-acetyl-L-Serine HCl salt (OAS), and O-acetyl-L-Tyrosine (OAT) by employing a capillary tube method using Swiss Albino Rats as the test system.
Young 5-6 weeks old Swiss Albino rats weighing about 200 Gm were used in the following protocol. They were obtained from an established animal supplier.
1. Dose Strength: 10, 20, 50 and 100 mg/kg of OAS and OAT
3. Route of Administration: Single exposure by oral gavage. 4. No. of animals per group: 5
Experimental procedure: The rats were fasted for 18-20 hours before dosing. A Syringe attached to a 16 gauge blunt tipped canula was used for this purpose. Two hours after dosing, the animals were provided with feed. 24 hours (±10 minutes) after the administration of the drug, blood samples were collected (0.2 ml approx) in capillary tubes. Animals were anaesthetized by mild ether inhalation by keeping a cotton swab soaked in ether near the nostrils of the animal. Blood was collected from the orbital sinus onto the capillary tube. […] For the confirmation of clotting, clotting as checked 30 seconds after the last observed clotting. An increase in clotting time compared to vehicle is an index of inhibition of platelet aggregation.
[…] With OAS, only one clotting time measurement, at 2 hours post dosing, was performed.
In FIG. 1, the clotting time in minutes was plotted against Log of the dose in mg/kg, each point being an average of clotting time obtained in 5 rats. A value of zero was assigned to vehicle control (zero dose). […] (AceTyro=O-Acetyl-L-Tyrosine and AceSer=O-Acetyl-L-Serine HCl).

[6] = 8% acetonitrile/92% aqueous 0.05 mol buffer of KH2PO4 (pH 5)
[7] = single human volunteer, 136 lbs, 600 mg
[8] = Group-2, individual rats, likely 10 mg/kg
[9] = Group-3, individual rats, likely 20 mg/kg
[10] = Group-4, individual rats, likely 50 mg/kg
[11] = Group-5, individual rats, likely 100 mg/kg

Stability in solutions during isolation, purification and analyses (qualitative) [2]: Certain instability
NMR purity of the fresh prepared sample ([2]; D2O with 1 drop of DCl): about 95%
NMR sample after 4 days at room temperature ([2]; D2O with 1 drop of DCl, three sets of signals found): severe decomposition
Stability in an aqueous solution as a salt of tartaric acid ([1]; compared with D2O/DCl sample): much greater
HPLC purity after 5 days after dissolution [3, 6]: 95.7%
HPLC purity in solution before storage [3, 6]: 97.3%
HPLC purity, same sample analyzed at 10 C [3]: 99.4%
HPLC purity, same sample analyzed at 40 C [3]: 97.3%
Structure (SMILES): CC(=O)OCC(NC(=O)[C@@H](N)COC(C)=O)C(=O)O (stereo partly shown) [Ex 3, O-acetyl-(L)-serine-O-acetyl-(L)-serine] (H-Ser(Ac)-[ξS](Ac)-OH)
By-product on recrystallization from aqueous 40% EtOH ([1]; zwitterion, heating at 70 C for approximately 20 minutes, mother liquor): Significant accumulation of the O, N-acetyl shift's by-product

Stability in solutions during isolation, purification and analyses (qualitative) [2]: greatest instability in the whole series
Purity estimated by NMR before re-dissolution ([2]; zwitterion): 95-96%
Purity estimated by NMR after dissolution with DI water followed by freeze-drying ([2]; zwitterion, aqueous solution): 87-88%
Variation of purity between HPLC analysis at 25 and 10° C. [3]: ≤ 20%
Difference in HPLC purity between analysis at 25 C and 10 C ([3]; same sample): 13-15%
HPLC purity, same sample analyzed at 10 C [3]: 93%
HPLC purity, same sample analyzed at 25 C ([3]; temperature of analysis 25 C): 78-80%
Structure (SMILES): CC(=O)OC[C@H](N)C(=O)N[C@H](C(=O)O)[C@@H](C)OC(C)=O [Ex 4, O-acetyl-(L)-serine-O-acetyl-(L)-threonine] (H-Ser(Ac)-Thr(Ac)-OH)

O, N-shift by-product formed after 26 hours ([2]; D2O solution (NMR sample)): about 3.4%
O, N-shift impurity after 5 days ([2]; same NMR sample in D2O): 4.7%
HPLC purity, same sample analyzed at 15 C ([3]; temperature of analysis 15 C): 99%
HPLC purity, same sample analyzed at 40 C [3]: 97%
Structure (SMILES): CC(=O)OC[C@H](N)C(=O)NC(Cc1ccc(OC(C)=O)cc1)C(=O)O (stereo partly shown) [Ex 5, O-acetyl-(L)-serine-O-acetyl-(L)-tyrosine] (H-Ser(Ac)-[ξY](Ac)-OH)
Stability in solutions during isolation, purification and analyses (qualitative) [2]: comparable stability of relative to Compound F
Decomposition in a solid state after 5 days of storage at 25 C ([2]; batch B, freshly dissolved material, NMR): a trace of the signal at 3.7 ppm (CH2OH group) was observed
Anti platelet activity (blood clotting time, FIG. 3) (platelet aggregation [4]; [7]): significant anti platelet activity
Period of significant anti platelet activity (platelet aggregation [4]; [7]): 200 h

Continued, compound first:

Structure (SMILES): CC(=O)OC[C@H](NC(=O)[C@@H](N)COC(C)=O)C(=O)O [Ex 3, O-acetyl-(L)-serine-O-acetyl-(L)-serine] (H-Ser(Ac)-Ser(Ac)-OH)
Hygroscopicity of salts ([1]; salts with HCl, MeSO3H and tartaric acid): hygroscopic
Stability of the salt with tartaric acid on attempted recrystallization ([1]; water/acetonitrile, produced the zwitterion): unstable

Structure (SMILES): CC(=O)OC[C@H](N)C(=O)O.Cl [OAS, O-acetyl-L-Serine HCl salt]
Clotting time (platelet aggregation [5]; [8]): 6 minutes (2×) and 8 minutes and 9 minutes (2×)
Clotting time (platelet aggregation [5]; [9]): 9 minutes (3×) and 8 minutes (2×)
Clotting time (platelet aggregation [5]; [10]): 19 min and 20 min and 16 min and 17 min and 15 min
Clotting time (platelet aggregation [5]; [11]): 26 minutes (2×) and 22 minutes and 30 minutes and 29 minutes
Significance of clotting times at all dose levels and between the dose levels (FIG. 1) (platelet aggregation [5]): statistically significant

Structure (SMILES): CC(=O)Oc1ccc(C[C@H](N)C(=O)O)cc1 [OAT, O-acetyl-L-Tyrosine]
Clotting time in minutes, After 4 hrs of administration (platelet aggregation [5]; Group-2, individual rats, group dose not given (doses 10, 20, 50, 100 mg/kg)): 8 minutes (2×) and 9 minutes (2×) and 10 minutes
Clotting time in minutes, After 24 hrs of administration (platelet aggregation [5]; [8]): 8 minutes (2×) and 9 minutes (2×) and 7 minutes
Clotting time in minutes, After 4 hrs of administration (platelet aggregation [5]; [9]): 9 minutes (2×) and 10 minutes (2×) and 15 minutes
Clotting time in minutes, After 24 hrs of administration (platelet aggregation [5]; [9]): 9 minutes and 10 minutes (2×) and 8 minutes and 11 minutes
Clotting time in minutes, After 4 hrs of administration (platelet aggregation [5]; [10]): 18 minutes and 19 minutes (2×) and 17 minutes (2×)
Clotting time in minutes, After 24 hrs of administration (platelet aggregation [5]; [10]): 14 minutes (3×) and 16 minutes (2×)
Clotting time in minutes, After 4 hrs of administration (platelet aggregation [5]; [11]): 21 minutes (2×) and 26 minutes and 29 minutes and 25 minutes
Clotting time in minutes, After 24 hrs of administration (platelet aggregation [5]; [11]): 19 min and 23 min and 22 min and 25 min and 24 min
Significance of clotting times at all dose levels and between the dose levels (FIG. 1) (platelet aggregation [5]): statistically significant
Whole blood clotting time (platelet aggregation [4]; Vol 1 (90 Kg), 1000 mg once, Time 8): 6.5 min
Whole blood clotting time (platelet aggregation [4]; Vol 1 (90 Kg), 1000 mg once, Time 12): 8.5 min
Whole blood clotting time (platelet aggregation [4]; Vol 1 (90 Kg), 1000 mg once, Time 24): 8 min
Whole blood clotting time (platelet aggregation [4]; Vol 1 (90 Kg), 1000 mg once, Time 48): 7.5 min
Sustained Increase % in clotting time (platelet aggregation [4]; Vol 1, 1000 mg, at 48 hours after initial dose, listed as O-Acetyl Tyrosine): 25%
Max % Increase in clotting time (platelet aggregation [4]; Vol 1, 1000 mg): 42%
Whole blood clotting time (platelet aggregation [4]; Vol 2 (60 Kg), 350 mg once, Time 2): 5.5 min
Whole blood clotting time (platelet aggregation [4]; Vol 2 (60 Kg), 350 mg once, Time 5): 6 min
Whole blood clotting time (platelet aggregation [4]; Vol 2 (60 Kg), 350 mg once, Time 11): 6.75 min
Whole blood clotting time (platelet aggregation [4]; Vol 2 (60 Kg), 350 mg once, Time 22.5): 6.5 min
Sustained Increase % in clotting time (platelet aggregation [4]; Vol 2, 350 mg, last time point): 18%
Max % Increase in clotting time (platelet aggregation [4]; Vol 2, 350 mg, listed as O-Acetyl Tyrosine): 23%
Time for which increase in clotting time was sustained (platelet aggregation [4]; Volunteer 1, 1000 mg): at least 48 hours
Dose dependence of increase in clotting time (platelet aggregation [4]; two human volunteers, 1000 mg and 350 mg): dose dependent increase in clotting time
Side effects or toxic reactions reported by volunteers (platelet aggregation [4]; two human volunteers, single dose 1000 mg or 350 mg): Neither volunteer reported any unusual side effects or toxic reactions
